In this assay the test system is PHA-stimulated lymphocytes. Kind of assay: Mixed lymphocyte culture of PHA-stimulated lymphocytes and TAIC, 3[H]-thymidine incorporation. The assay is classed as cell-based, human. As to conditions: 2 μmol 1-MT. The method, then: In order to clarify, whether the inhibitor of the enzyme indolamine-2,3-dioxygenase (IDO) 1-methyltryptophane (1-MT) influences the suppressor function of the TAIC generated in the “Mo” and “Mo+Ly” set ups (see Example 11), a variety of mixed lymphocyte cultures (MLC) with PHA (phytohaemagglutinine) stimulated T-cells in the presence and in the absence of 1-MT were established.
In these mixed lymphocyte cultures 50.000 lymphocytes with 2 μg […] were transferred into the wells of a 96-well-plate, followed by a proliferation period over 144 hours (indicated as “PhaLy”). Lymphocytes only cultivated in medium without addition of PHA were run as a further control (indicated as “Ly”).
In order to determine the proliferation of PHA-stimulated lymphocytes in the different co-cultures, the following 4 set ups were run and examined:
In this arrangement, the amount of the radio activity determined is a measure for the amount of labeled thymidine incorporated into the DNA, and therefore a measure for the proliferation rate of the lymphocytes. The values reported in FIG. 8 correspond to mean values from triple determinations of 3 experiments each with indication of the standard deviation.

Results on one compound are retold here after US20060286670A1, “Transplant acceptance inducing cells of monocytic origin and their preparation and use” (BLASTICON BIOTECHNOLOGISCHE FORSCHUNG GMBH, priority 2002, published 2006).

With `Cn1cc(C[C@H](N)C(=O)O)c2ccccc21` [1-MT, 1-methyltryptophane], the “influence on the suppressor function of the TAIC” value is on record as “increases the suppressor function of the TAIC synergistically”.
